The text below walks through data of patent US20060292244A1, “Use of pvp-iodine liposomes for treatment of acne” (priority 2003, published 2006).

In the series the test system is Human ciliated epithelium cells. The experiment in a line: in-vitro ciliary activity / ciliary vibration test. The format is cell-based. As to the method:
1 test substance at a temperature of 37° C.

For the compound `N=C(NCCCCCCNC(=N)NC(=N)Nc1ccc(Cl)cc1)NC(=N)Nc1ccc(Cl)cc1` [chlorohexidine solution, chlorohexidine], the “ciliary activity / ciliary vibration” value is given as “decrease”.
